Results taken from ChEMBL document CHEMBL1129233, “1,3-diaryl-2-carboxyindoles as potent non-peptide endothelin antagonists” (Bioorg Med Chem Lett, 1996).
pIC50: −log10 of the molar value. Several values for one entry are separate records, joined by “and”; a condition that tells them apart may be missing. Equal values may be shown once.

How the values were obtained:
[1] = target: T1, Endothelin-1 receptor (Homo sapiens, UniProt P25101); test: Inhibitory concentration to the endothelin A receptor expressed in LtK cells; format: cell-based
T1 sequence (P25101 whole entry): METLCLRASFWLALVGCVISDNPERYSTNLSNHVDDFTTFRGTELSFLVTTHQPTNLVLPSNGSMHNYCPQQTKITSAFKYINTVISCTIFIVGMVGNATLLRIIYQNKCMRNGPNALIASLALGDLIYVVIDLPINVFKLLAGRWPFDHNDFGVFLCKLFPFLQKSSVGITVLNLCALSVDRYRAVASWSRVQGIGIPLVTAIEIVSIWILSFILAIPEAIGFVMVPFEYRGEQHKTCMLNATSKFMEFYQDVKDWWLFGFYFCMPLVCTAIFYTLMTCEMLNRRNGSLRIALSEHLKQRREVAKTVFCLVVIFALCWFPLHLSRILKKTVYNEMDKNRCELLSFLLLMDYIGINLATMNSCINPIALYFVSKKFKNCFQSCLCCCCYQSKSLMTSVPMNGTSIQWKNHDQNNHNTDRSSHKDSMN

[2] = target: T2, Endothelin receptor type B (Homo sapiens, UniProt P24530); test: Inhibitory concentration against Endothelin B receptor expressed in CHO-K1 cells; format: cell-based
T2 sequence (P24530 whole entry): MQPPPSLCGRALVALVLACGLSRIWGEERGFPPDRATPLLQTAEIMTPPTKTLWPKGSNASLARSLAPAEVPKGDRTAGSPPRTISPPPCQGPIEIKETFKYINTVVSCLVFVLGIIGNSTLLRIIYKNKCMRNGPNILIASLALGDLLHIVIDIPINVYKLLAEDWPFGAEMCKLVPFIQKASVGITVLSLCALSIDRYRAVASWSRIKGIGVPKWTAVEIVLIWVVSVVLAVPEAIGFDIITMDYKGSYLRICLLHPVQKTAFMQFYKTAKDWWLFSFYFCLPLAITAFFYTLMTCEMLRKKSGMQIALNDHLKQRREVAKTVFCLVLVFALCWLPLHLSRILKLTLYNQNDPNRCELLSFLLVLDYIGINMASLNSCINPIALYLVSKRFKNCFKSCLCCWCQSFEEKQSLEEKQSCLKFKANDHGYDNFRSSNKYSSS

[3] = species on record: Oryctolagus cuniculus; test: Inhibition of arachidonic acid release (AAR-B) in rabbit renal artery vascular smooth muscle cells (ETA) upon stimulation with ET-1; format: functional
[4] = species on record: Oryctolagus cuniculus; test: Ability to inhibit the release of arachidonic acid in rabbit renal artery vascular smooth muscle cells (ETA) upon stimulation with ET-1; format: functional
[5] = target: T2, Endothelin receptor type B; test: Compound was evaluated for binding affinity against human Endothelin B receptor
[6] = target: T3, Endothelin receptor type B (Rattus norvegicus, UniProt P21451); test: Compound was evaluated for binding affinity against rat Endothelin B receptor; inactive
T3 sequence (P21451 whole entry): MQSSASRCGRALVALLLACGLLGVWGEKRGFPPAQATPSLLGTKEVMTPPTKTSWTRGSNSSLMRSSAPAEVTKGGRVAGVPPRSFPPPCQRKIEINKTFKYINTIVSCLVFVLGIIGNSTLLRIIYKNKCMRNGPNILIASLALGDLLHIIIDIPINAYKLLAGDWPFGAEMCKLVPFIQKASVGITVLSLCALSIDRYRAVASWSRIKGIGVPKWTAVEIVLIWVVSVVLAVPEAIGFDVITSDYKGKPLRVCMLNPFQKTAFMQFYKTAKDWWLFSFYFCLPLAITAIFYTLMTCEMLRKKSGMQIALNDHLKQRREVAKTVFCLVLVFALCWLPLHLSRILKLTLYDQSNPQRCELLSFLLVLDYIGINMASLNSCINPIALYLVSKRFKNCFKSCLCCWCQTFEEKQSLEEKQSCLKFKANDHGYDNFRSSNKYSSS

[7] = target: Endothelin-1 receptor (Oryctolagus cuniculus); test: Compound was evaluated for binding affinity against rabbit Endothelin A receptor

Compound | pIC50 [1] | pIC50 [2] | also measured
COc1cc2c(-c3ccc4c(c3)OCO4)c(C(=O)O)n(Cc3ccc4c(c3)OCO4)c2cc1OCc1ccccc1 | 7.52 | 7.30 | pIC50 [3]: 6.64
O=C(O)c1c(-c2ccc3c(c2)OCO3)c2ccccc2n1-c1ccc2c(c1)OCO2 | 5.39 | 4.66 | 
COc1ccc(Cn2c(C(=O)O)c(-c3ccc4c(c3)OCO4)c3cc(OCc4ccccc4)ccc32)cc1 | 5.57 | 5.36 | 
COc1cccc(-c2c(C(=O)O)n(-c3ccc4c(c3)OCO4)c3ccc(OC)cc23)c1 | 5.26 | < 4.60 | 
COc1ccc2c(c1)c(-c1ccc3c(c1)OCO3)c(C(=O)O)n2Cc1ccc2c(c1)OCO2 | 6.46 | 5.62 | 
O=C(O)c1c(-c2ccc3c(c2)OCO3)c2cc3c(cc2n1Cc1ccc2c(c1)OCO2)OCO3 | 6.62 | 6.17 | 
O=C(O)c1c(-c2ccc3c(c2)OCO3)c2cc(OCc3ccccc3)ccc2n1-c1ccc2c(c1)OCO2 | 5.89 | 4.85 | 
O=C(O)c1c(-c2ccc3c(c2)OCO3)c2cc(OCc3ccccc3)ccc2n1Cc1ccc2c(c1)OCO2 | 6.10 | 5.60 | 
CCCOc1ccc2c(c1)c(-c1ccc3c(c1)OCO3)c(C(=O)O)n2-c1ccc2c(c1)OCO2 | 7.37 | 4.92 | 
COc1ccc(-n2c(C(=O)O)c(-c3ccc4c(c3)OCO4)c3cc(OC)ccc32)cc1 | 5.46 | < 4.60 | 
COc1ccc2c(c1)c(-c1ccc3c(c1)OCO3)c(C(=O)O)n2-c1ccccc1 | 4.92 | < 4.60 | 
COc1ccc(-n2c(C(=O)O)c(-c3ccc4c(c3)OCO4)c3ccccc32)cc1 | 5.64 | < 4.60 | 
COc1ccc2c(c1)c(-c1ccc3c(c1)OCO3)c(C(=O)O)n2-c1ccc2c(c1)OCO2 | 6.59 | 4.82 | 
CC(C)Oc1c(C(=O)O)sc2ccc(OCc3ccccc3)cc12 |  |  | pIC50 [5]: < 4.00; IC50 [6]: Not Active; pIC50 [7]: 5.22
COc1cc2c(-c3ccc4c(c3)OCO4)c(C(=O)O)n(Cc3ccc4c(c3)OCO4)c2cc1OC | 7.22 |  | 

More lines, main results first:

pIC50 [1] | pIC50 [2] | Compound | also measured
5.82 | < 4.60 | COc1ccc2c(c1)c(-c1ccc(OC)c(OC)c1)c(C(=O)O)n2-c1ccc2c(c1)OCO2 | 
5.96 | < 4.60 | COc1ccc(-c2c(C(=O)O)n(-c3ccc4c(c3)OCO4)c3ccc(OC)cc23)cc1 | 
7.33 | 5.25 | CCCOc1ccc2c(-c3ccc4c(c3)OCO4)c(C(=O)O)n(Cc3ccc4c(c3)OCO4)c2c1 | pIC50 [4]: 6.32
5.00 | < 4.60 | O=C(O)c1c(-c2ccc3c(c2)OCO3)c2cc(Cl)ccc2n1-c1ccccc1 | 
6.89 and 7.10 | 5.96 and 6.07 | CCCOc1ccc2c(c1)c(-c1ccc3c(c1)OCO3)c(C(=O)O)n2Cc1ccc2c(c1)OCO2 | 
5.82 | 5.48 | O=C(O)c1c(-c2ccc3c(c2)OCO3)c2ccccc2n1Cc1ccc2c(c1)OCO2 | 
5.62 | 4.68 | COc1ccc(-c2c(C(=O)O)n(-c3ccc4c(c3)OCO4)c3ccc(OCc4ccccc4)cc23)cc1 | 
7.22 | 6.07 | COc1ccc(-c2c(C(=O)O)n(Cc3ccc4c(c3)OCO4)c3cc(OC)c(OC)cc23)cc1OC | 
5.13 | < 4.60 | COc1ccc2c(-c3ccc4c(c3)OCO4)c(C(=O)O)n(-c3ccccc3)c2c1 | 
4.96 | 4.84 | O=C(O)c1c(-c2ccc3c(c2)OCO3)c2ccccc2n1Cc1ccccc1 | 
7.10 | 5.15 | COc1cc2c(-c3ccc4c(c3)OCO4)c(C(=O)O)n(-c3ccc4c(c3)OCO4)c2cc1OC | 
